Measurements reported in the NIST ThermoML archive (doi:10.1016/j.fluid.2014.04.025).
± gives the expanded uncertainty stated by the source.

What was measured:
[1] = Liquid; for mass density: 293.15 K, 101.33 kPa, Densimeter; for Normal boiling temperature: Ebulliometric method (Recirculating still)
[2] = refractive index (Na D-line) (dimensionless); details: 293.15 K; 101.33 kPa; Liquid; Standard Abbe refractometry

mass density [1] | Normal boiling temperature [1] | refractive index [2] | SMILES
964.74 ± 0.12 kg/m3 | 124.48 ± 0.2 °C | 1.40234 ± 0.00034 | COCCO [2-methoxyethan-1-ol]
1100.36 ± 0.14 kg/m3 | 189.03 ± 0.2 °C | 1.47987 ± 0.00034 | C[S+](C)[O-] [dimethyl sulfoxide]

SMILES | mass density [1] | Normal boiling temperature [1] | refractive index [2]
Cc1ccccc1 [toluene] | 867.02 ± 0.11 kg/m3 | 110.58 ± 0.2 °C | 1.49678 ± 0.00033
